Experiment: Pharmacokinetics after duodenal injection of unformulated or formulated Dmt-DALDA in anesthetized rats (plasma, HPLC-UV)
Assay type: in vivo
Conditions: rats, formulated solution containing citric acid and lauroyl carnitine
Experimental: In the experiments represented in the subject Figure, six anesthetized rats (which were color-coded as: red, white, blue, orange, green and yellow) were given 0.7 mL Dmt-DALDA (1.6 mg/mL) with a syringe through a 27 gauge needle into the duodenum. This injection procedure was followed due to the technical difficulty inherent in preparing capsules which can be swallowed by small animals the size of a rat. The intraduodanal injection, therefore, mimics the release of the components of an enteric-coated capsule formulation which would pass through the esophagus and stomach and release its contents in the duodenum. Three of the rats (red, white and blue) were given Unformulated Dmt-DALDA in which there were no additional components (i.e., other than the Dmt-DALDA), while the other three rats (orange, green and yellow) were given Formulated Dmt-DALDA which included, in addition to the Dmt-DALDA, 0.5M citric acid and lauroyl carnitine (10 mg/ml). Samples of blood were taken from the carotid artery through an indwelling catheter before and 5, 15, 30, 60 and 120 minutes after the administration of the respective formulations (i.e., Formulated and Unformulated). The blood samples were centrifuged and the resulting plasma supernatants were stored frozen at −20° C. […] Peptide was detected with an ultraviolet (UV) detector set at a wavelength of 210 nm. […] Table I, moreover, provides the standard deviations for the data obtained regarding each of the test rats, which standard deviations are also indicated in FIG. 1.
Table II (below) summarizes the pharmacokinetic parameters in rats of orally administered unformulated and formulated Dmt-DALDA as those terms are defined above. Cmax refers to the maximum concentration of peptide detected in the rat plasma. The area under the curve (AUC) is a measure of the extent of peptide absorption and is calculated by the trapezoidal rule from a plot of peptide concentration as a function of time. Tmax indicates when the maximum concentration of the Dmt-DALDA in the blood serum was obtained.

## Cc1cc(O)cc(C)c1C[C@H](N)C(=O)N[C@H](CCCNC(=N)N)C(=O)N[C@@H](Cc1ccccc1)C(=O)N[C@@H](CCCCN)C(N)=O [Dmt-DALDA, H-2,6-dimethyltyrosine-D-Arginine-Phenylalanine-Lysine-NH2]
  Cmax and AUC, formulated solution vs unformulated: significantly enhanced
